The structures appear in SMILES notation. Converted amounts (≈) assume the structure as drawn.

Here are results for 51 molecules from PubChem BioAssay AID1996.

The conditions of this data set: buffer; pH 7.4; 200.0 µM.
Turning to `NS(=O)(=O)c1cc2c(cc1C(F)(F)F)NC(Cc1ccccc1)NS2(=O)=O` (stereo unspecified), the kinetic solubility is above 63.2 µg/mL. In the case of `Cc1ccc(S(=O)(=O)N(C)c2ccc3ccccc3c2)cc1`, the kinetic solubility turned out to be 1.6 µg/mL (≈ 5.14 µM). As for `COC(=O)c1ccccc1NC(=O)CSc1ncccn1`, the figure is above 45.5 µg/mL; as for `CCNC(=S)Nc1ccc(Cl)c([N+](=O)[O-])c1`, above 39 µg/mL. The molecule `O=C(O)CSc1nc2ccccc2n1Cc1ccccc1` showed a solubility (kinetic) above 44.8 µg/mL.

Regarding `Cc1noc(C)c1COc1ccc(C(=O)N2CCCC(C(N)=O)C2)cc1` (stereo unspecified), the kinetic solubility was above 53.6 µg/mL. On to `O=S(=O)(Nc1ccc(F)cc1)N1CCOCC1`, for which the solubility (kinetic) was above 39 µg/mL. Regarding `CCOC(=S)N/C(=N\S(C)(=O)=O)c1ccccc1`, the kinetic solubility was above 43 µg/mL. The molecule `Cn1cnc([N+](=O)[O-])c1Sc1ncnc2nc[nH]c12` showed a solubility (kinetic) above 41.6 µg/mL.

For the molecule `Cc1ccc(NC(=O)C2CCCN2C(=O)NC2CCCCC2)cc1` (stereo unspecified), the solubility (kinetic) is 1.9 µg/mL (≈ 5.77 µM). In turn, `CN(c1ccc(O)cc1)c1nc(-c2cccnc2)cs1` showed a solubility (kinetic) of 3.2 µg/mL (≈ 11.3 µM).

`CCn1c(SCC(=O)NC2CC2)nnc1-c1csc(C)c1` returned a solubility (kinetic) above 48.4 µg/mL. `O=c1[nH]c(CSc2cccc[n+]2[O-])nc2ccccc12`: the solubility (kinetic) is above 42.8 µg/mL. As for `COc1ccc(N2C(=O)Cc3c2nc(N)c(C#N)c3N)cc1`, the figure is 13 µg/mL (≈ 44 µM); as for `CC(C)(C)NC(=O)C1CC1(c1ccccc1)c1ccccc1` (stereo unspecified), 2.8 µg/mL (≈ 9.54 µM).

As for `C[n+]1cc(-c2ccccc2)oc1-c1ccccc1`, the solubility (kinetic) is 24.4 µg/mL. Turning to `Cc1ccc(-c2nc(C(Cl)Cl)c3ccccc3n2)cc1`, the kinetic solubility is below 0.3 µg/mL. As for `O=C(c1cccc(Br)c1)N1CCN(c2ccccn2)CC1`, the kinetic solubility is above 51.9 µg/mL.

For `COc1ccc(C(=O)/C=C/NCc2ccc(F)cc2)cc1OC`, the solubility (kinetic) was above 47.3 µg/mL.

For `CCOC(=O)c1sc(=NC(=O)c2cccc(C)c2)n(C)c1C`, the solubility (kinetic) worked out at 0.7 µg/mL (≈ 2.2 µM).

Consider `COc1cccc(C(=O)Nc2cccc3cccnc23)c1OC`, for which the kinetic solubility was below 0.3 µg/mL.

For the molecule `Cc1noc(C)c1COc1ccc2ccc(=O)oc2c1`, the solubility (kinetic) came to 11.5 µg/mL (≈ 42.4 µM). On to `Cc1cc(C)c(C(=O)N2CCCC(Nc3ccc(F)cc3)C2)o1` (stereo unspecified), for which the solubility (kinetic) was above 47.5 µg/mL. As to `Br.COc1ccc(C2=CSC3=NCCN23)cc1`, the kinetic solubility was above 47 µg/mL. `CC(=O)N1CCN(S(=O)(=O)c2ccc(C)cc2)C1C` (stereo unspecified) gave a kinetic solubility above 42.4 µg/mL. In turn, `CSCCCNC(=S)N1CCc2ccccc2C1` displayed a solubility (kinetic) above 42.1 µg/mL. Regarding `C=CCn1c(SCCCC)nc([O-])cc1=O.[NH4+]`, the solubility (kinetic) is 22.4 µg/mL. In the case of `CN(C)C(=O)CN1c2cccc3cccc(c23)S1(=O)=O`, the solubility (kinetic) was above 43.6 µg/mL. Take `Cc1cc(O)c(NC(=O)c2cccc([N+](=O)[O-])c2)cc1C`: the solubility (kinetic) is below 0.3 µg/mL. Molecule `S=c1nc(NCc2cccc(Cl)c2)c2ccccc2[nH]1` registered a solubility (kinetic) of 0.5 µg/mL (≈ 1.66 µM). `COc1ccc(NC(=O)CN2CCCCC2)cc1S(=O)(=O)N1CCCCC1.O=C(O)C(=O)O` registered a kinetic solubility above 72.8 µg/mL. As for `Nc1cc(=O)n(Cc2ccccc2)c(=O)n1-c1ccc(F)cc1`, the kinetic solubility is above 46.7 µg/mL. In the case of `COc1ccccc1OCC(=O)N1CCCCCCC1`, the kinetic solubility is above 41.6 µg/mL. For the molecule `O=C1C2CCCCN2C(=O)N1CCCCN1CCN(c2ccc(F)cc2)CC1` (stereo unspecified), the kinetic solubility turned out to be 43.5 µg/mL (≈ 112 µM). For `Cc1cc(C(=O)NCc2nc(-c3ccccc3)no2)ccc1[N+](=O)[O-]`, the kinetic solubility was 18.9 µg/mL (≈ 55.9 µM).

`CCOC(=O)c1oc2ccc(Cl)cc2c1NC(C)=O` had a solubility (kinetic) of 4.8 µg/mL (≈ 17 µM). Against the preceding molecule, the solubility kinetic is about 3.9-fold lower.

In turn, `Cc1cccnc1NC(=S)NCc1ccco1` yielded a kinetic solubility of 31.4 µg/mL (≈ 127 µM).

In turn, `Cc1ccc(C(=O)Nc2ccccc2Oc2ccccc2)o1` registered a kinetic solubility of 12.5 µg/mL (≈ 42.6 µM). Against the preceding molecule, the solubility kinetic is about 2.5-fold lower.

Take `Cc1ccc(SCC(=O)N2CCN(c3ccccn3)CC2)cc1`: the kinetic solubility was found to be 43.8 µg/mL (≈ 134 µM). `CCOC(=O)CN(C(=O)c1ccccc1[N+](=O)[O-])C(C)(C)C`: the solubility (kinetic) was 43.7 µg/mL (≈ 142 µM).

In turn, `Cc1nc(Cl)c(C(=O)NCCc2ccccc2)c(C)c1[N+](=O)[O-]` yielded a kinetic solubility of 3.5 µg/mL (≈ 10.5 µM). On to `O=C(O)c1ccc2c(c1)C(=O)N(c1cccc3ccccc13)C2=O`, for which the solubility (kinetic) was above 47.6 µg/mL. Molecule `CN1CCCNc2nc3ccccc3nc21` had a solubility (kinetic) above 32.1 µg/mL. Consider `CCOc1ccccc1NC(=O)Nc1cc(S(=O)(=O)N(C)C)ccc1C`, for which the kinetic solubility was 0.6 µg/mL (≈ 1.59 µM). `O=C(NCc1ccco1)c1nn2cccnc2c1Cl` came in with a solubility (kinetic) above 41.5 µg/mL. With `O=C1CSC(c2ccccc2)N1c1cccnc1` (stereo unspecified) the figure was above 38.4 µg/mL; with `CC1=C(Nc2ccc(C(=O)O)cc2)C(=O)c2ccccc2C1=O`, above 46.1 µg/mL; with `CC(=O)N1CCN(c2ccc(NC(=O)c3ccc(Cl)cc3)cc2)CC1`, 1 µg/mL (≈ 2.79 µM). `CCOC(=O)C1CCN(C(=O)c2ccc(OC3CCN(C(=O)COC)CC3)cc2)CC1`: the solubility (kinetic) amounted to 45 µg/mL (≈ 104 µM). This solubility kinetic is about 45-fold higher than that of the molecule before. The molecule `CC1CCCCC1NC(=O)COC(=O)c1ccc2c(c1)NC(=O)CS2` (stereo unspecified) showed a solubility (kinetic) of 9.8 µg/mL (≈ 27 µM). Compared with the last molecule, the solubility kinetic is about 4.6-fold lower. As for `Cc1cc(NC(=O)C2CC(=O)N(c3ccc(F)cc3)C2)no1` (stereo unspecified), the figure is above 45.5 µg/mL.

As a reminder, the solubility (kinetic) is the concentration staying in solution when a stock, usually in DMSO, is diluted into the medium.
